Patent US20110223149A1, “PEPTIDOMIMETIC MACROCYCLES” (AILERON THERAPEUTICS, INC., priority 2009, published 2011)
Where a SMILES comes first, the peptide text is derived from it. Bridges are numbered along the chain shown (N, C = ends). [ ]: non-standard residue; d: D form. S5 = C=CCCC[C@](C)(N)C(=O)O

What was measured:
Cathepsin D = Cathepsin D (Homo sapiens, UniProt P07339); type: in vitro ADME; conditions: pH 4.4
Experimental: For identification of Cathepsin B, D, and L metabolism, parent cross-linked peptide and positive control linear peptide (4 mM each in DMSO) was separately aliquoted (5 μL) to 1 mL volumes of 67 mM ammonium acetate solutions buffered either to pH 5.4 (cat B, L) and add 10 mM DTT, or to pH 4.4 (cat D) and add 0.117M KCl. Single enzyme working solution (10 μg/mL) was then added (40 μL) to each peptide solution (20 μM) to yield initial weight ratio (%) of 1:20 for each enzyme and peptide pair. Each mixture was placed in a 38-40° C. oven for incubation times of 30 and 60 min. At each time point, the reaction was stopped by addition of 500 μL of 48:48:2 v/v(%) hexafluoro-2-propanol/acetonitrile/TFA. A biphasic mixture formed after mixing and the bottom layer liquid was diluted (1:10) into acetonitrile: water and subsequently injected in duplicate for gradient LC/Ion Mobility TOF-MS analyses.
Ion mobility-MS and MS-MS analysis and peptide sequencing were performed on a Waters (Milford, Mass.) Synapt high-resolution ion-mobility-time-of flight mass spectrometer. Samples were prepared by dilution of the unpurified cross-linked peptide proteolysis product samples 10-fold into 1:1 acetonitrile-water containing 0.1% formic acid. LC-MS analyses were performed by reverse-phase gradient elution with 0.1% formic acid and 0.1% formic acid in acetonitrile as eluants at 500 μL/min. […]

Bcl-xL = Bcl-xL (Homo sapiens, UniProt Q07817); experiment: Protein-ligand binding experiment by SEC-LC-MS; conditions: 1 μM SP-4 and 5 μM Bcl-xL, 60 min at room temperature
Experimental: Protein-ligand binding experiments for Bcl-xL. Simple protein-ligand binding experiments were conducted using the following representative procedure outlined for a simple system-wide control experiment using 1 μM SP-4 and 5 μM Bcl-xL. A 1 μL, DMSO aliquot of a 40 μM stock solution of SP-4 is dissolved in 19 μL of PBS (Phosphate-buffered saline: 50 mM, pH 7.5 Phosphate buffer containing 150 mM NaCl). The resulting solution is mixed by repeated pipetting and clarified by centrifugation at 10 000 g for 10 min. To a 4 μL, aliquot of the resulting supernatant is added 4 μL, of 10 μM BCL-xL in PBS. Each 8.0 μL experimental sample thus contains 40 pmol (1.5 μg) of protein at 5.0 μM concentration in PBS plus 1 μM SP-4 and 2.5% DMSO. Duplicate samples thus prepared for each concentration point are incubated for 60 min at room temperature, and then chilled to 4° C. prior to size-exclusion chromatography-LC-MS analysis of 5.0 μL injections. Samples containing a target protein, protein-ligand complexes, and unbound compounds are injected onto an SEC column, where the complexes are separated from non-binding component by a rapid SEC step. The SEC column eluate is monitored using UV detectors to confirm that the early-eluting protein fraction, which elutes in the void volume of the SEC column, is well resolved from unbound components that are retained on the column. […]

Chain of Cathepsin D (P07339 65-412, species assumed): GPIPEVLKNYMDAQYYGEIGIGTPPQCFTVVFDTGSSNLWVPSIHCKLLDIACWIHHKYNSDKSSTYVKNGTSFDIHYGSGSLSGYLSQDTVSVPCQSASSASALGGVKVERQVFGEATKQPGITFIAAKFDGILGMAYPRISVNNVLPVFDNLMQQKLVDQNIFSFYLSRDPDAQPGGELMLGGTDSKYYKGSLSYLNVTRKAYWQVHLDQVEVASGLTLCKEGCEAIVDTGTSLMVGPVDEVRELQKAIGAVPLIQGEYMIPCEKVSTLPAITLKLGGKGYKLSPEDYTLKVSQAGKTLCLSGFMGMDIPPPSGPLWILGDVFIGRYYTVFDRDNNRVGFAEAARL
Chain of Bcl-xL (Q07817 whole entry, species assumed): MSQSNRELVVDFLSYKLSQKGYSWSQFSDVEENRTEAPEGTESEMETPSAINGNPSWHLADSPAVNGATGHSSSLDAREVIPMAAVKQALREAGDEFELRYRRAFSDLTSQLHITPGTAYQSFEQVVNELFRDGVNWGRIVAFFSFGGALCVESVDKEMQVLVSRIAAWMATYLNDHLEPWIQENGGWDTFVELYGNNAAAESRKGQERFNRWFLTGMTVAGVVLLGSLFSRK

Row | Compound | cleavage site by cathepsin-D (proteolysis products) (Cathepsin D) | detection of protein-ligand complex with Bcl-xL (Bcl-xL)
1 | CC[C@H](C)[C@H](NC(=O)[C@H](Cc1c[nH]c2ccccc12)NC(=O)[C@H](CCCNC(=N)N)NC(C)=O)C(=O)N[C@@H](C)C(=O)N[C@@H](CCC(N)=O)C(=O)N[C@@H](C)C(=O)N[C@@H](CC(C)C)C(=O)N[C@@H](CCCNC(=N)N)C(=O)N[C@@]1(C)CCC/C=C\CCC[C@@](C)(C(=O)N[C@@H](Cc2ccccc2)C(=O)N[C@@H](CC(N)=O)C(=O)N[C@@H](C)C(=O)N[C@@H](Cc2ccccc2)C(=O)N[C@@H](Cc2ccc(O)cc2)C(=O)N[C@@H](C)C(=O)N[C@@H](CCCNC(=N)N)C(=O)N[C@@H](CCCNC(=N)N)C(N)=O)NC(=O)[C@H](CC(=O)O)NC(=O)CNC(=O)[C@H]([C@@H](C)CC)NC1=O [SP-1, Ac-RWIAQALR$IGD$FNAFYARR-NH2] (Ac-RWIAQALR[S5]IGD[S5]FNAFYARR-NH2; staple (Z) 9-13) | at F—Y residues | 
2 | Ac-IWIAQALR$IGD$FNAYYARR-NH2 [SP-4] |  | detection of the protein-ligand complex
